According to US9079866B2, “Flap modulators” (JANSSEN PHARMACEUTICA NV, priority 2013, dated 2015):
Structures can show the parent of a compound that is named as a salt. Where two headings read alike, the source gives them in different places.

Assays:
[1] = test system: leukotriene pathway in human whole blood (LTB4 levels); assay: Human whole blood assay (A23187-stimulated LTB4); format: cell-based; conditions: Homo sapiens, human whole blood diluted 1:1, A23187-stimulated; read-out: LTB4 IC50 1:1
Procedure, shortened: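 Heparinised human whole blood diluted 1:1 in RPMI, pre-incubated 15 min at 37° Celsius with compound, then stimulated with A23187 (7 μg/mL) for 30 min at 37° Celsius. Plasma LTB4 measured by immunoassay kit; IC50 from 4-parameter fit; single replicate per plate, at least one healthy donor.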

human FLAP = human FLAP (Homo sapiens (Human), UniProt P20292); assay: FLAP binding assay (HTRF format)
Procedure, shortened: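 Samples were run in duplicate on each of two assay plates, the results were averaged, and the signal was expressed as an HTRF ratio.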

human FLAP, sequence (P20292 whole entry): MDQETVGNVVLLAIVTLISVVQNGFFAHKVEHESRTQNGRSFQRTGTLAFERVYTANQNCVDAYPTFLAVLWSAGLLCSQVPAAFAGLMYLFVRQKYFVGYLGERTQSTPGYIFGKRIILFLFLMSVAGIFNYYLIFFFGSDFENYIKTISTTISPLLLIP

Row | IC50 [1] [µM] | Ki (human FLAP; wild type FLAP, HTRF format) [µM] | SMILES | Ki (human FLAP; read-out: FLAP Binding wild type HTRF Ki) [µM]
1 | 0.191 | 0.103 | N#Cc1nc(N)cnc1-c1ccc(-c2ccccc2S(=O)(=O)N2CCS(=O)(=O)CC2)cc1F [Example 704, 6-Amino-3-{2′-[(1,1-dioxidothiomorpholin-4-yl)sulfonyl]-3-fluorobiphenyl-4-yl}pyrazine-2-carbonitrile] | 
2 | 0.289 | 0.0869 | CNC(=O)C1CN(S(=O)(=O)c2ccccc2-c2ccc(-c3cnc(N)nc3)c(F)c2)C1 [Example 705, 1-{[4′-(2-Aminopyrimidin-5-yl)-3′-fluorobiphenyl-2-yl]sulfonyl}-N-methylazetidine-3-carboxamide] | 
3 | 0.362 | 0.0796 | N#Cc1nc(N)cnc1-c1ccc(-c2ccccc2S(=O)(=O)NCCO)cc1F [Example 706, 4′-(5-Amino-3-cyanopyrazin-2-yl)-3′-fluoro-N-(2-hydroxyethyl)biphenyl-2-sulfonamide] | 
4 | 0.127 | 0.0327 | C[C@H](O)CNS(=O)(=O)c1ccccc1-c1ccc(-c2ncc(N)nc2C#N)c(F)c1 [Example 707, 4′-(5-Amino-3-cyanopyrazin-2-yl)-3′-fluoro-N-[(2S)-2-hydroxypropyl]biphenyl-2-sulfonamide] | 
5 | 0.142 | 0.0235 | C[C@@H](O)CNS(=O)(=O)c1ccccc1-c1ccc(-c2ncc(N)nc2C#N)c(F)c1 [Example 708, 4′-(5-Amino-3-cyanopyrazin-2-yl)-3′-fluoro-N-[(2R)-2-hydroxypropyl]biphenyl-2-sulfonamide] | 
6 | 0.268 | 0.0054 | NC(=O)C1CCN(S(=O)(=O)c2ccccc2-c2ccc(-c3cnc(N)nc3)c(F)c2)CC1 [Example 709, 1-((4′-(2-Aminopyrimidin-5-yl)-3′-fluoro-[1,1′-biphenyl]-2-yl)sulfonyl)piperidine-4-carboxamide] | 
7 | 0.0565 | 0.0137 | C[C@H](CO)NS(=O)(=O)c1ccccc1-c1ccc(-c2ncc(N)nc2C#N)c(F)c1 [Example 710, 4′-(5-Amino-3-cyanopyrazin-2-yl)-3′-fluoro-N-[(1R)-2-hydroxy-1-methylethyl]biphenyl-2-sulfonamide] | 
8 | 0.142 | 0.0417 | C[C@@H](CO)NS(=O)(=O)c1ccccc1-c1ccc(-c2ncc(N)nc2C#N)c(F)c1 [Example 711, 4′-(5-Amino-3-cyanopyrazin-2-yl)-3′-fluoro-N-[(1S)-2-hydroxy-1-methylethyl]biphenyl-2-sulfonamide] | 
9 | 0.0523 | 0.0019 | N#Cc1nc(N)cnc1-c1ccc(-c2ccc(C(F)(F)F)cc2S(=O)(=O)NCCO)cc1F [Example 712, 4′-(5-Amino-3-cyanopyrazin-2-yl)-3′-fluoro-N-(2-hydroxyethyl)-4-(trifluoromethyl)biphenyl-2-sulfonamide] | 
10 | 0.0534 | 0.0017 | CCNS(=O)(=O)c1cc(C(F)(F)F)ccc1-c1ccc(-c2ncc(N)nc2C#N)c(F)c1 [Example 713, 4′-(5-Amino-3-cyanopyrazin-2-yl)-N-ethyl-3′-fluoro-4-(trifluoromethyl)-[1,1′-biphenyl]-2-sulfonamide] | 
11 | 0.0331 | 0.0024 | CC(C)(CO)CNS(=O)(=O)c1ccccc1-c1ccc(-c2ncc(N)nc2C#N)c(F)c1 [Example 714, 4′-(5-Amino-3-cyanopyrazin-2-yl)-3′-fluoro-N-(3-hydroxy-2,2-dimethylpropyl)biphenyl-2-sulfonamide] | 
12 | 1.17 | 0.484 | Nc1cnc(-c2ccc(-c3ccccc3S(=O)(=O)c3nccc(N)n3)cc2F)cn1 [Example 727, 2-{[4′-(5-Aminopyrazin-2-yl)-3′-fluorobiphenyl-2-yl]sulfonyl}pyrimidin-4-amine] | 
13 | 0.861 | 0.0647 | N#Cc1nc(N)cnc1-c1ccc(-c2ccccc2S(=O)(=O)C2CC2)cc1F [Example 729, 6-Amino-3-[2′-(cyclopropylsulfonyl)-3-fluorobiphenyl-4-yl]pyrazine-2-carbonitrile] | 
14 | 0.136 | 0.0067 | N#CC1(S(=O)(=O)c2ccccc2-c2ccc(-c3cnc(N)cn3)c(F)c2)CCCC1 [Example 730, 1-{[4′-(5-Aminopyrazin-2-yl)-3′-fluorobiphenyl-2-yl]sulfonyl}cyclopentanecarbonitrile] | 
15 | 0.0513 | 0.0147 | NC(=O)C1(S(=O)(=O)c2ccccc2-c2ccc(-c3cnc(N)cn3)c(F)c2)CCCC1 [Example 731, 1-{[4′-(5-Aminopyrazin-2-yl)-3′-fluorobiphenyl-2-yl]sulfonyl}cyclopentanecarboxamide] | 
16 | 0.272 | 0.032 | CC(C)(C#N)S(=O)(=O)c1ccccc1-c1ccc(-c2cnc(N)cn2)c(F)c1 [Example 735, 2-{[4′-(5-Aminopyrazin-2-yl)-3′-fluorobiphenyl-2-yl]sulfonyl}-2-methylpropanenitrile] | 
17 | 2.95 | 0.24 | N#CC1(S(=O)(=O)c2ccccc2-c2ccc(-c3cnc(N)nc3)c(F)c2)CCCC1 [Example 738, 1-{[4′-(2-Aminopyrimidin-5-yl)-3′-fluorobiphenyl-2-yl]sulfonyl}cyclopentanecarbonitrile] | 

Row | IC50 [1] [µM] | Ki (human FLAP; wild type FLAP, HTRF format) [µM] | SMILES | Ki (human FLAP; read-out: FLAP Binding wild type HTRF Ki) [µM]
18 | 1.11 | 0.37 | NC(=O)C1(S(=O)(=O)c2ccccc2-c2ccc(-c3cnc(N)nc3)c(F)c2)CCCC1 [Example 739, 1-{[4′-(2-Aminopyrimidin-5-yl)-3′-fluorobiphenyl-2-yl]sulfonyl}cyclopentanecarboxamide] | 
19 | 0.0263 | 0.0046 | Nc1cnc(Sc2ccccc2-c2ccc(-c3cnc(N)cn3)c(F)c2)cn1 [Example 741, 5-{[4′-(5-Aminopyrazin-2-yl)-3′-fluorobiphenyl-2-yl]sulfanyl}pyrazin-2-amine] | 
20 | 0.0257 | 0.0029 | Nc1cnc(-c2ccc(-c3ccccc3Sc3cncc(N)n3)cc2F)cn1 [Example 742, 5-{2′-[(6-Aminopyrazin-2-yl)sulfanyl]-3-fluorobiphenyl-4-yl}pyrazin-2-amine] | 
21 | 0.0216 | 0.0016 | Nc1cnc(-c2ccc(-c3ccccc3Sc3ccncn3)cc2F)cn1 [Example 743, 5-(3-Fluoro-2′-(pyrimidin-4-ylthio)-[1,1′-biphenyl]-4-yl)pyrazin-2-amine] | 
22 | 0.132 | 0.0155 | Nc1cnc(Sc2ccccc2-c2ccc(-c3cnc(N)nc3)c(F)c2)cn1 [Example 744, 5-{2′-[(5-Aminopyrazin-2-yl)sulfanyl]-3-fluorobiphenyl-4-yl}pyrimidin-2-amine] | 
23 | 0.137 | 0.002 | N#Cc1nc(N)cnc1-c1ccc(-c2ccc(C(F)(F)F)cc2Oc2ncccn2)cc1F [Example 746, 6-Amino-3-[3-fluoro-2′-(pyrimidin-2-yloxy)-4′-(trifluoromethyl)biphenyl-4-yl]pyrazine-2-carbonitrile] | 
24 | 0.262 | 0.0271 | N#Cc1nc(N)cnc1-c1ccc(-c2ccccc2Oc2ncccn2)cc1F [Example 747, 6-Amino-3-[3-fluoro-2′-(pyrimidin-2-yloxy)biphenyl-4-yl]pyrazine-2-carbonitrile] | 
25 | 1.06 | 0.0809 | CC(C)S(=O)(=O)Cc1ccccc1-c1ccc(-c2cnc(N)cn2)c(F)c1 [Example 751, 5-(3-Fluoro-2′-{[(1-methylethyl)sulfonyl]methyl}biphenyl-4-yl)pyrazin-2-amine] | 
26 | 0.299 | 0.135 | Nc1cnc(-c2ccc(-c3ccccc3CS(=O)(=O)c3ncccn3)cc2F)cn1 [Example 752, 5-{3-Fluoro-2′-[(pyrimidin-2-ylsulfonyl)methyl]biphenyl-4-yl}pyrazin-2-amine] | 
27 | 0.0213 | 0.0044 | Nc1cnc(-c2ccc(-c3ccccc3CSc3nccc(N)n3)cc2F)cn1 [Example 753, 2-({[4′-(5-Aminopyrazin-2-yl)-3′-fluorobiphenyl-2-yl]methyl}sulfanyl)pyrimidin-4-amine] | 
28 | 0.0162 | 0.0052 | Nc1cnc(-c2ccc(-c3ccc(C(F)(F)F)cc3C(=O)N3CCS(=O)(=O)CC3)cc2F)cn1 [Example 757, 5-{2′-[(1,1-Dioxidothiomorpholin-4-yl)carbonyl]-3-fluoro-4′-(trifluoromethyl)biphenyl-4-yl}pyrazin-2-amine] | 
29 | 0.442 | 0.159 | Nc1cnc(-c2ccc(-c3ccccc3C(=O)N3CCC[C@@H](O)C3)cc2F)cn1 [Example 762, (3R)-1-{[4′-(5-Aminopyrazin-2-yl)-3′-fluorobiphenyl-2-yl]carbonyl}piperidin-3-ol] | 
30 | 0.111 | 0.0079 | CC(C)(C)NC(=O)c1cc(C(F)(F)F)ccc1-c1ccc(-c2cnc(N)cn2)c(F)c1 [Example 784, 2-[4-(5-Aminopyrazin-2-yl)-3-fluoro-phenyl]-N-tert-butyl-5-(trifluoromethyl)benzamide] | 
31 | 0.0575 | 0.0085 | C[C@H](CO)NC(=O)c1cc(C(F)(F)F)ccc1-c1ccc(-c2cnc(N)cn2)c(F)c1 [Example 785, 2-[4-(5-Aminopyrazin-2-yl)-3-fluoro-phenyl]-N-[(1R)-2-hydroxy-1-methyl-ethyl]-5-(trifluoromethyl)benzamide] | 
32 | 0.105 | 0.0607 | C[C@@H](CO)NC(=O)c1cc(C(F)(F)F)ccc1-c1ccc(-c2cnc(N)cn2)c(F)c1 [Example 786, 2-[4-(5-Aminopyrazin-2-yl)-3-fluoro-phenyl]-N-[(1S)-2-hydroxy-1-methyl-ethyl]-5-(trifluoromethyl)benzamide] | 
33 | 0.0979 | 0.0091 | C[C@@H](NC(=O)c1cc(C(F)(F)F)ccc1-c1ccc(-c2cnc(N)cn2)c(F)c1)C(F)(F)F [Example 787, 2-[4-(5-Aminopyrazin-2-yl)-3-fluoro-phenyl]-5-(trifluoromethyl)-N-[(1R)-2,2,2-trifluoro-1-methyl-ethyl]benzamide] | 

Row | SMILES | IC50 [1] [µM] | Ki (human FLAP; wild type FLAP, HTRF format) [µM] | Ki (human FLAP; read-out: FLAP Binding wild type HTRF Ki) [µM]
34 | CCS(=O)(=O)Cc1ccccc1-c1ccc(-c2cnc(N)cn2)c(F)c1 [Example 749, 5-{2′-[(Ethylsulfonyl)methyl]-3-fluorobiphenyl-4-yl}pyrazin-2-amine hydrogen chloride salt] | 0.468 |  | 0.245
